In a melting point compilation (Tetko et al.; mined from patent text by program, amines drawn as free bases though some values may be those of a salt):

| SMILES | melting point [°C] |
| --- | --- |
| N#Cc1cccnc1N1CCN(CC(=O)Nc2ccccc2[N+](=O)[O-])CC1 | 134 to 136 |
| Cc1nc2cc(NC(=O)c3cc4cc(C(F)(F)F)cnc4n3Cc3ccncc3)ccc2s1 | 208 to 210 |
| CC1(C)CC(S(=O)(=O)Cc2c(C(F)(F)F)nn3c2OCCC3)=NO1 | 151 to 152 |
| CC(C)CC(=O)Nc1ccc2oc3c(c2c1)CCCC3 | 154 to 157 |
| NC(=O)N(O)Cc1ccc(Br)s1 | 145 to 147 |
| CCCc1nc2cnccc2s1 | 44 to 47 |
| CC(C)(C)Nc1cc(N2CCCNCC2)nc(NC(C)(C)C)n1 | 127 to 132 |
| COc1ccc(CSc2nc3cnccc3[nH]2)cc1 | 160 to 161 |
| CC(=O)OCC(=O)C1CCC2C3CCC4CC(OS(=O)(=O)c5ccc(C)cc5)CCC4(C)C3C(=O)CC12C (stereo unspecified) | 155 to 156 |
| CSCC[C@@H](NC(=O)[C@H](Cc1ccc(O)cc1)NC(=O)OC(C)(C)C)C(=O)NCC(=O)Oc1c(Cl)c(Cl)c(Cl)c(Cl)c1Cl | 175 to 176 |
| N#CNc1ccccc1I | 117 to 118 |
| O=C(O)CCSc1cccc(Br)c1 | 87 to 88 |
| CCn1c(C(OCCO)(c2cccc(C(F)(F)F)c2)c2cccc(C(F)(F)F)c2)nc(-c2ccncc2)c1-c1ccc(Cl)cc1 | 222 to 223 |
| CC(C)Cc1ccc(C(=O)O)c(=O)n1C | 118 to 119 |
| NS(=O)(=O)OCCOc1ccc(Br)cc1 | 134 to 137 |
| Nc1cc([N+](=O)[O-])cc(CCO)c1N | 172 |
| O=C1CNc2ncc(I)cc2N1Cc1ccccc1 | 225 |
| Nc1nc2ccccc2c2c1ncn2CC1(O)CCCC1 | 254 to 255 |
| O=[N+]([O-])c1ccc2nc3c(nc2c1)N1CCCCC1CO3 (stereo unspecified) | 226 to 229 |

| SMILES | melting point [°C] |
| --- | --- |
| CCOC(=O)C(C)=NN(C)c1ccc(C(F)(F)F)cc1 | 71 to 72 |
| C[C@@H](NC(=O)c1cncc(-c2ccc(Cl)cc2)c1)[C@](O)(Cn1cncn1)c1ccc(F)cc1F | 93 to 101 |
| CN1C(=O)C(CN2CCCCC2)CC1C1CC1c1ccccc1Cl (stereo unspecified) | 87 to 90 |
| CC(=O)c1cc(Cl)c(N)c2c1OCCO2 | 133 to 136 |
| Nc1nc(-c2cc(Cl)ccc2Cl)nc(N2CC(CO)C2)n1 | 224 to 226 |
| CS(=O)(=O)OC[C@@H]1CN(c2ccc(O)cc2)C(=O)O1 | 282 to 284 |
| O=c1c(-c2nc[nH]n2)coc2ccccc12 | 160 |
| OC1CSC(Oc2cnc(-c3ccncc3)c(Cl)c2)C(O)C1O (stereo unspecified) | 226 |
| Cc1c(O)c(O)cc2ccccc12 | 97 to 100 |
| CCCc1nc(NCCOC(C)=O)nc(N2CCOCC2)n1 | 94 to 95 |
| CCCCCCCCCCCCNS(=O)(=O)c1cccc(C(F)(F)F)c1 | 65 to 68 |
| Cn1cnnc1C(c1ccc(Cl)cc1)c1ccc2c(c1)c(-c1cccc(Cl)c1)nc1nnnn12 (stereo unspecified) | 217 |
| C=C(C#N)C(=O)OCC(C)(C)C | 40 to 41 |
| O=C(NOCCO)c1cc(Br)c(F)c(F)c1Nc1ccc(I)cc1F | 189 to 190 |
| Clc1ccc(-c2cc(OCCCN3CCCCC3)[nH]n2)cc1 | 140 |
| CCn1nc2c(N)nc3ccccc3c2c1CC(C)(C)C | 240 |
| Cc1cc(C(=O)c2ccc(Cl)cc2)ccc1N | 113 to 116 |
| CC(=O)c1csc(S(N)(=O)=O)c1 | 170 to 172 |
| Nc1ccc(NNC=O)cc1 | 122 to 125 |

| SMILES | melting point [°C] |
| --- | --- |
| O=P(O)(O)Cc1ccc(CP(=O)(O)O)cc1 | > 300 |
| COc1ccc(CN2C(=O)C(O)(c3cc(CN(C)C)ccc3OC)c3cc(Cl)ccc32)c(OC)c1 (stereo unspecified) | 189 |
| OC1CSC(Oc2cc(-c3cccnc3F)ccc2Cl)C(O)C1O (stereo unspecified) | 165 |
| CNc1c(CCO)cc(N)c([N+](=O)[O-])c1CCO | 99 |
| Cc1c(C)c(N2CCN(c3ccc(F)cc3)CC2)c(C)c2c1OC(C)(C)C2=O | 176 to 179 |
| CC(C)(S)CN1CCN(c2ccc(C#N)cc2)CC1 | 92 to 94 |
| CC(=O)NCC(C)(C)c1ccc2nc(C)[nH]c2c1 | 198 to 201 |
| CC(C)Cc1nc2ccc(C(c3cccc(Cl)c3)n3ccnc3)cc2[nH]c1=O (stereo unspecified) | 215 |
| CCCCC(=NO)C(C)(C)NOC(CNC(C)(C)C(CC)=NO)Cn1ccnc1[N+](=O)[O-] (stereo unspecified) | 153 to 154 |
| CN(C)C1CCN(C(=O)C2CCC(c3[nH]nc4c3C(=O)c3c(NC(=O)NN5CCOCC5)cccc3-4)CC2)C1 (stereo unspecified) | 191 to 193 |
| Sc1nc2ccccc2c2nc(-c3ccoc3)nn12 | 290 to 292 |
| N#CSc1ccc(N)c(F)c1 | 36 to 38 |
| CC(=CCO)c1ccc(C2CCCCCCC2)cc1 | 40 to 44 |
| O=C1NC(=O)C(c2cc(F)cc(F)c2)(c2cc(F)cc(F)c2)N1 | 271 to 274 |
| C[C@@H](O[C@H]1CCCN(Cc2n[nH]c(=O)[nH]2)[C@H]1c1ccccc1)c1cccc(Br)c1 | 165 |
| Nc1ccc(Cl)cc1C(=O)C(F)(F)F | 93 to 94 |
| CCSc1nccnc1C(=O)CC | 45 to 48 |
| COc1cc2c(=O)c3c(Cl)ccc([N+](=O)[O-])c3[nH]c2cc1Cl | 284 to 285 |
| OC1C2=C(CCN(CCCCc3c[nH]c4ccccc34)C2)c2ccccc21 (stereo unspecified) | 205 to 208 |

Second part, the compound after the results:

| melting point [°C] | SMILES |
| --- | --- |
| 142 | CC(Cc1ccc(Cl)cc1Cl)NC(=O)c1ccccc1C(F)(F)F (stereo unspecified) |
| 61 to 63 | CCOC(=O)c1nc(-c2ccc(OC)cc2)ns1 |
| 93 | COC(=O)c1cccc(OCCCOc2cc3c(cc2O)CCO3)c1 |
| 110 to 112 | CCOC(=O)c1cn(C(=O)c2ccccc2)c2sc(-c3ccc(OC)cc3)c(C)c2c1=O |
| 129 to 130 | CN(C)C(=O)Nc1ccc(OCCCC(=O)c2ccccc2)c(Cl)c1 |
| 158 to 159 | C=CCN(CC=C)c1nc(N(CC=C)CC=C)nc(N2CCN(C(=O)NC(c3ccccc3)c3ccccc3)CC2)n1 |
| 224 to 227 | COc1ccc2[nH]c3c(c2c1)C[C@@]1(C)C(=O)N(CCN2CCN(C)CC2)C(=O)N1[C@@H]3c1cccc(O)c1 (racemic) |
| 115 to 117 | COC(=O)CCCC#Cc1cc(Cl)ccc1NS(=O)(=O)c1cc(OC)ccc1OC |
| 168 | O=C(O)CNC(=O)Nc1cccc(C(=O)OCc2ccccc2)c1 |
| 110 to 112 | O=C(CBr)c1cccc(OCc2ccc3ccc(Cl)cc3n2)c1 |
| 248 to 250 | CCCCCCCC(=O)Oc1nc2c(N)ncnc2n1Cc1ccccc1 |
| 119 | CCOc1ccc(-c2ccc(C3COC(c4c(F)cccc4F)=N3)cc2)cn1 (stereo unspecified) |
| 151 to 153 | Cc1nn2c(CCCOc3ccc(NCCC(=O)O)cc3)n[nH]c2c1Cl |
| > 300 | Cc1nc(NC(=O)Nc2ccccc2)sc1C(=O)NCc1ccccc1 |
| 218 to 219 | Cc1nc2c(N)nc3ccccc3c2n1CCCCC(=O)N1CCOCC1 |
| 174 | CCCc1ccc(S(=O)(=O)Nc2ccc3nc(C)ccc3c2)cc1 |
| 204 | O=C(Nc1ccc2cc(CN3CCC(CCO)CC3)cnc2c1)c1ccc(-c2ccc(Cl)cc2)cc1 |
| 97 to 99 | CCOC(=O)C1=C(C)N=C(SCc2ccc(OC)cc2)N(C(=O)OC(C)C)C1c1cccc(Cl)c1Cl (stereo unspecified) |
| 141 to 143 | CCNC(=O)c1nc(-c2ccc(C)c(C)c2)n(-c2cc(Cl)ccc2C)c1-c1cccc(Cl)c1 |
| 266 to 267 | CCc1cn(C2CC(O)C(CNC(=O)Cc3ccccc3NC(C)=O)O2)c(=O)[nH]c1=O (stereo unspecified) |
| 135 to 137 | COC(=O)C1=C(C)N=C(C)C(C(=O)OC)C(c2ccccc2)C1 (stereo unspecified) |
| 141 to 144 | CC1=NN=C(C=Cc2ccc(F)cc2)c2cc3c(cc2C1)OCO3 |

| melting point [°C] | SMILES |
| --- | --- |
| 241 to 243 | COc1cc2ncc(C#N)c(Nc3ccc4ncccc4c3)c2cc1OC |
| 106 to 107 | N#CC1(c2cccc(OCc3ccc4ccc(F)cc4c3)c2)CCOCC1 |
| 82 to 83 | C#CC1(Oc2ccc(F)cc2[N+](=O)[O-])CCN(C(=O)Oc2ccccc2)CC1 |
| 156 to 158 | CN1C(=O)N(c2ccccc2Br)Cc2cnc(Nc3ccc4c(c3)OCC(CO)O4)nc21 (stereo unspecified) |
| 105 to 107 | CN(CCCNc1ncc(Cc2cccc(Cl)c2)c(=O)[nH]1)c1ccccn1 |
| 134 to 136 | CCCc1ccc(OCC(C)O)c2c(=O)cc(C(=O)O)oc12 (stereo unspecified) |
| > 250 | CNC(=O)NCc1cccc2c1S(=O)(=O)N=C2C1=C(O)C(C(C)(C)C)N(Cc2ccc(F)cc2)C1=O (stereo unspecified) |
| 124 to 126 | CC(=O)Oc1ccc([C@H]2[C@H](c3ccccc3)C2(Cl)Cl)cc1 (relative stereo) |
| 248 to 250 | C=CCc1c(O)c2cccnc2n(-c2ccccc2)c1=O |
| 94 to 96 | CC(=O)OCCC1CCN(CCCN2c3cc(OCc4ccccc4)ccc3Sc3c2cccc3S(=O)(=O)N(C)C)CC1 |
| 210 to 212 | CCOCc1nc2c(N)nc3cc(N4CCN(CC)C4=O)ccc3c2n1CC(C)(C)O |
| 135 to 137 | CCOC(=O)/C(=C/c1conc1-c1ccc(OC)cc1OCc1ccccc1C(=O)OC)Cc1cc2c(cc1OC)OCO2 |
| 205 to 207 | O=C1NC(=O)c2cc(Nc3ccccc3)c(Nc3ccccc3)cc21 |
| 140 to 141 | CC(C)(C)OC(=O)C(N)C1NC(C(=O)OCc2ccccc2)C2(CCN(Cc3ccccc3)CC2)S1 (stereo unspecified) |
| 74 to 76 | CC=CCn1c(CC)c(C)c2cnnc(OCc3ccc(F)cc3)c21 |
| 231 to 233 | O=COCC#Cc1cc(F)c2ncc(C(=O)NCc3ccc(Cl)cc3)c(O)c2c1 |
| 239 to 240 | COC(=O)c1cn2c(n1)COc1ccc(Cl)cc1-2 |
| 117 to 120 | CC(OC(=O)c1cn(-c2ccc(F)cc2)c(-c2ccc(N(C)C)cc2)cc1=O)OC(=O)C(C)(C)C (stereo unspecified) |
| 61 to 63 | CCC(=O)NCCC1=CCc2ccc(OC)cc21 |
| 191 to 195 | Cc1ccc2ccccc2c1N(C(=O)CO)C1CCOC1=O (stereo unspecified) |
| > 250 | COc1cc(OC)cc(N2CCC(c3c(N)nc(N)[nH]c3=O)CC2)c1 |
| 76 to 79 | COCc1cc2ccccc2c(Oc2ccc(/C=C/C(=O)O)cc2)c1-c1ccccc1 |
